# Source: US20160194358A1, “LINEAR PEPTIDE ANTIBIOTCS” (priority 2013, published 2016)
# Read-outs that look alike come from different tables or passages of the source. Where a SMILES comes first, the peptide text is derived from it. The star is where a group is joined. boroAla((+)-pinanediol) = C[C@H](N*)B1O[C@@H]2C[C@@H]3C[C@@H](C3(C)C)[C@]2(C)O1; Propanoyl(3-decylamino) = CCCCCCCCCCNCCC(=O)*
# Columns and labels:
# [1] = test system: MRSA strain USA300
# [2] = test system: Escherichia coli strain MC4100 IMP-4213, which harbors an LptD mutation; conditions: E. coli MC4100 IMP-4213; 35° C., 22 hours
# Outline: (§1)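 CLSI broth microdilution in cation-adjusted Mueller Hinton Broth with 0.002% Tween-80, two-fold dilutions starting at 64 μg/ml.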
# [3] = test system: methicillin resistant Staphylococcus aureus (MRSA) strain USA300 (NRS384); conditions: MRSA USA300 (NRS384); 35° C., 22 hours
# Outline: as §1
# [4] = test system: MRSA strain USA300; conditions: 0.5 ug/mL imipenem plus 0.125 ug/mL Compound 217
# Experimental: Time-kill experiments were performed in 96-well incubation plates using Mueller Hinton II Broth+0.002% Tween-80 as the growth media. Individual wells contained imipenem alone, Compound 217 alone, or a combination of both agents at various concentrations. MRSA strain USA300 was grown overnight at 35° C. on Mueller Hinton Agar plates, and colonies were suspended in Mueller Hinton II Broth+0.002% Tween-80 to a final density of 2*10^8 cfu/mL. To each well of the incubation plates, 5 uL of this suspension were added, resulting in an initial density of 1*10^7 cfu/mL. Plates were incubated at 35° C., and at various time points 30 μl samples were removed, mixed 1:1 with 25 mg/ml activated carbon, serially diluted in sterile phosphate buffered saline supplemented with 0.05% Tween 20, and spotted onto Mueller Hinton Agar plates to enable cfu quantification. Colonies were counted and the cfu/ml at each time point calculated by based on the dilution factor and volume spotted.
# [5] = test system: MRSA strain USA300; conditions: Compound 217 with imipenem, synergy defined as sum of FICs ≦0.5
# Experimental: In this assay in each axis of a 96-well plate contains a 2-fold dilution of a given agent, such that each well contains a unique combination of the agents being tested.
# To create a checkerboard dilution scheme, imipenem was diluted in Mueller Hinton II Broth+0.002% Tween-80 to twice the final desired concentration, and six 2-fold serial dilutions were performed in the same media yielding seven imipenem concentrations. Dilutions of Compound 217 were prepared similarly except that ten dilutions were performed for a total of eleven concentrations. For each concentration of imipenem, 50 uL aliquots were transferred to columns 1-12 of a given row of a 96-well clear polypropylene assay plate. For each concentration of Compound 217, 50 uL were transferred to rows A-H of a given column of the same plate. […]
# MRSA strain USA300 was grown overnight at 35° C. on Mueller Hinton Agar plates, and colonies were suspended in Mueller Hinton II Broth+0.002% Tween-80 to a final density of 1*10^7 cfu/ml. […] The plate was incubated at 35° C. for 22 hours after which growth was determined via visual inspection. For each sub-MIC concentration of imipenem, the concentration of Compound 217 required to prevent visible growth was recorded, and the fractional inhibitor concentration (FIC) of each agent was calculated by dividing the concentration of each agent by MIC of the agent alone. […]
# [6] = MRSA USA300, partner Amoxicillin/Clav at 1/4x its MIC
# [7] = MRSA USA300, partner Ampicillin at 1/4x its MIC
# [8] = MRSA USA300, partner Azlocillin at 1/4x its MIC
# [9] = MRSA USA300, partner Biapenem at 1/4x its MIC
# [10] = MRSA USA300, partner Carbenicillin at 1/4x its MIC
# [11] = MRSA USA300, partner Cefaclor at 1/4x its MIC
# [12] = MRSA USA300, partner Cefamandole at 1/4x its MIC
# [13] = MRSA USA300, partner Cefazolin at 1/4x its MIC
# [14] = MRSA USA300, partner Cefdinir at 1/4x its MIC
# [15] = MRSA USA300, partner Cefepime at 1/4x its MIC
# [16] = MRSA USA300, partner Cefixime at 1/4x its MIC
# [17] = MRSA USA300, partner Cefmetazole at 1/4x its MIC
# [18] = MRSA USA300, partner Cefonicid at 1/4x its MIC
# [19] = MRSA USA300, partner Cefotaxime at 1/4x its MIC
# [20] = MRSA USA300, partner Cefotetan at 1/4x its MIC
# [21] = MRSA USA300, partner Cefoxitin at 1/4x its MIC
# [22] = MRSA USA300, partner Cefpodoxime at 1/4x its MIC
# [23] = MRSA USA300, partner Cefprozil at 1/4x its MIC
# [24] = MRSA USA300, partner Ceftazidime at 1/4x its MIC
# [25] = MRSA USA300, partner Ceftizoxime at 1/4x its MIC
# [26] = MRSA USA300, partner Ceftriaxone at 1/4x its MIC
# [27] = MRSA USA300, partner Cephalothin at 1/4x its MIC
# [28] = MRSA USA300, partner Doripenem at 1/4x its MIC
# [29] = MRSA USA300, partner Ertapenem at 1/4x its MIC
# [30] = MRSA USA300, partner Faropenem at 1/4x its MIC
# [31] = MRSA USA300, partner Imipenem at 1/4x its MIC
# [32] = MRSA USA300, partner Mecillinam at 1/4x its MIC
# [33] = MRSA USA300, partner Meropenem at 1/4x its MIC
# [34] = MRSA USA300, partner Methicillin at 1/4x its MIC
# [35] = MRSA USA300, partner Mezlocillin at 1/4x its MIC
# [36] = MRSA USA300, partner Moxalactam at 1/4x its MIC
# [37] = MRSA USA300, partner Oxacillin at 1/4x its MIC
# [38] = MRSA USA300, partner Piperacillin/tazobactam at 1/4x its MIC
# [39] = MRSA USA300, partner Ticarcillin at 1/4x its MIC
compound,measurement,setting,value
CCCCCCCCCCNCCC(=O)N[C@@H](CCCCN)C(=O)N[C@H](C(=O)N[C@@H](C)C(=O)N[C@@H](CCCCN)C(=O)N[C@@H](C)B1O[C@@H]2C[C@@H]3C[C@@H](C3(C)C)[C@]2(C)O1)[C@@H](C)O [Compound 217] ({Propanoyl(3-decylamino)}-KTAK-{boroAla((+)-pinanediol)}),Compound 217 SIC,[1]; [6],0.125 µg/mL
same,Fold reduction in Compound 217 MIC,[1]; [6],4
same,Compound 217 SIC,[1]; [7],0.25 µg/mL
same,Fold reduction in Compound 217 MIC,[1]; [7],2
same,Compound 217 SIC,[1]; [8],0.125 µg/mL
same,Fold reduction in Compound 217 MIC,[1]; [8],4
same,Compound 217 SIC,[1]; [9],0.0156 µg/mL
same,Fold reduction in Compound 217 MIC,[1]; [9],32
same,Compound 217 SIC,[1]; [10],0.125 µg/mL
same,Fold reduction in Compound 217 MIC,[1]; [10],4
same,Compound 217 SIC,[1]; [11],0.125 µg/mL
same,Fold reduction in Compound 217 MIC,[1]; [11],4
same,Compound 217 SIC,[1]; [12],0.125 µg/mL
same,Fold reduction in Compound 217 MIC,[1]; [12],4
same,Compound 217 SIC,[1]; [13],0.0625 µg/mL
same,Fold reduction in Compound 217 MIC,[1]; [13],8
same,Compound 217 SIC,[1]; [14],0.0078 µg/mL
same,Fold reduction in Compound 217 MIC,[1]; [14],64
same,Compound 217 SIC,[1]; [15],0.03125 µg/mL
same,Fold reduction in Compound 217 MIC,[1]; [15],16
same,Compound 217 SIC,[1]; [16],0.0625 µg/mL
same,Fold reduction in Compound 217 MIC,[1]; [16],8
same,Compound 217 SIC,[1]; [17],0.125 µg/mL
same,Fold reduction in Compound 217 MIC,[1]; [17],4
same,Compound 217 SIC,[1]; [18],0.125 µg/mL
same,Fold reduction in Compound 217 MIC,[1]; [18],4
same,Compound 217 SIC,[1]; [19],0.0625 µg/mL
same,Fold reduction in Compound 217 MIC,[1]; [19],8
same,Compound 217 SIC,[1]; [20],0.125 µg/mL
same,Fold reduction in Compound 217 MIC,[1]; [20],4
same,Compound 217 SIC,[1]; [21],0.125 µg/mL
same,Fold reduction in Compound 217 MIC,[1]; [21],4
same,Compound 217 SIC,[1]; [22],0.0625 µg/mL
same,Fold reduction in Compound 217 MIC,[1]; [22],8
same,Compound 217 SIC,[1]; [23],0.125 µg/mL
same,Fold reduction in Compound 217 MIC,[1]; [23],4
same,Compound 217 SIC,[1]; [24],0.125 µg/mL
same,Fold reduction in Compound 217 MIC,[1]; [24],4
same,Compound 217 SIC,[1]; [25],0.0625 µg/mL
same,Fold reduction in Compound 217 MIC,[1]; [25],8
same,Compound 217 SIC,[1]; [26],0.03125 µg/mL
same,Fold reduction in Compound 217 MIC,[1]; [26],16
same,Compound 217 SIC,[1]; [27],0.03125 µg/mL
same,Fold reduction in Compound 217 MIC,[1]; [27],16
same,Compound 217 SIC,[1]; [28],0.03125 µg/mL
same,Fold reduction in Compound 217 MIC,[1]; [28],16
same,Compound 217 SIC,[1]; [29],0.125 µg/mL
same,Fold reduction in Compound 217 MIC,[1]; [29],4
same,Compound 217 SIC (μg/ml),[1]; [30],≦0.0039 μg/ml
same,Fold reduction in Compound 217 MIC,[1]; [30],>128
same,Compound 217 SIC,[1]; [31],0.03125 µg/mL
same,Fold reduction in Compound 217 MIC,[1]; [31],16
same,Compound 217 SIC,[1]; [32],0.25 µg/mL
same,Fold reduction in Compound 217 MIC,[1]; [32],2
same,Compound 217 SIC,[1]; [33],0.01563 µg/mL
same,Fold reduction in Compound 217 MIC,[1]; [33],32
same,Compound 217 SIC,[1]; [34],0.125 µg/mL
same,Fold reduction in Compound 217 MIC,[1]; [34],4
same,Compound 217 SIC,[1]; [35],0.125 µg/mL
same,Fold reduction in Compound 217 MIC,[1]; [35],4
same,Compound 217 SIC,[1]; [36],0.03125 µg/mL
same,Fold reduction in Compound 217 MIC,[1]; [36],16
same,Compound 217 SIC,[1]; [37],0.0625 µg/mL
same,Fold reduction in Compound 217 MIC,[1]; [37],8
same,Compound 217 SIC,[1]; [38],0.125 µg/mL
same,Fold reduction in Compound 217 MIC,[1]; [38],4
same,Compound 217 SIC,[1]; [39],0.0625 µg/mL
same,Fold reduction in Compound 217 MIC,[1]; [39],8
same,Compound 217 MIC,"[1]; MRSA strain USA300, partner beta-lactam: None",0.5 µg/mL
same,synergy with partner beta-lactam antibiotics (SIC ≤ 1/4 MIC),[1]; partner beta-lactam at 1/4x its MIC,synergize
same,MIC (μg/mL) E. coli,[2],23 µg/mL
same,MIC (μg/mL) S. aureus,[3],0.31 µg/mL
same,"time-kill: reduction of viable cells, combination vs either agent alone",[4],synergistic
same,sum of the FICs,[5],< 0.5
